Earlier results, collected in patent US7371422B2, “Cereal grain kernels fortified with iron and calcium” (The Procter & Gamble Company, priority 2003, dated 2008).

Details: in adult college students (Bovell-Benjamin et al. 1999); relative to ferrous sulfate

For NCC(=O)[O-].NCC(=O)[O-].[Fe+2] [Ferrous bis-glycinate, ferrous bis-glycinate], the “absorbed ... times better than ferrous sulfate” value is given as 4.7 times.
